Assay results reported in article PMC10747822 (Pharmaceutics, 2023).
Where a SMILES comes first, the peptide text is derived from it. [ ]: non-standard residue; d: D form. The star is where a group is joined. NH(4-amidinobenzyl) = N=C(N)c1ccc(CN*)cc1

Assays:
[1] = Bench-top stability in fresh mouse whole blood; format: in vitro ADME; settings: minimally diluted, 1 µg/mL (1000 ng/mL), room temperature, sampled at 0, 1 and 2 h, duplicates of 20 µL, UPLC-MS/MS peak area ratio analyte/IS, read-out: calculated half-life in whole blood (converted)
Experimental: To investigate peptide stability, minimally diluted plasma or blood samples were generated through the addition of 10 µL of a spiking solution (50,000 ng/mL) to 490 µL of the pertinent biological matrix, resulting in a sample concentration of 1000 ng/mL. Samples (withdrawal of duplicates of 20 µL) were measured immediately after preparation and again after 1 and 2 h. Stability was evaluated via the comparison of peak area ratios of analyte and IS.
To determine which biological matrix is best suited for pharmacokinetic experiments in mice, we investigated the bench-top stability of Ac-[D-Leu]LLLRVK-amba in plasma and fresh whole blood at room temperature over a 2 h period (Figure 3). In plasma, anti-coagulated with Li-heparin, Ac-[D-Leu]LLLRVK-amba was very rapidly degraded.

[2] = Metabolite identification / degradation in mouse plasma by HRMS; format: in vitro ADME; settings: minimally diluted mouse plasma
Experimental: Metabolite identification experiments were performed in minimally diluted mouse plasma at a Ac-[D-Leu]LLLRVK-amba concentration of 20 µg/mL. Minimally diluted plasma samples were incubated at room temperature and analyzed after 0, 0.5, 4, and 16 h. Samples were depleted from proteins via precipitation with a 2-fold excess of ACN + 0.1% FA and diluted with one equivalent of water + 0.1% FA for direct infusion onto the mass spectrometer.
High-resolution mass spectrometric (HRMS) determinations for the investigation of Ac-[D-Leu]LLLRVK-amba metabolism/degradation in plasma were performed on a Xevo G2-XS QTof (Waters, Milford, MA, USA) equipped with a heated Z-spray ESI source. Measurements were performed via direct infusion using the integrated infusion pump with positive ion sensitivity mode.

Stock solution stability = format: physicochemical; settings: 2 weeks; solutions in ACN/H2O (1/1, v/v) + 0.1% FA in glass, kept at 4 °C
Experimental: Calibration and quality control (QC) spike solutions were prepared in ACN/H2O (1/1, v/v) + 0.1% FA in glass vials. These were produced from stock solution generated from accurately dissolved independent weighings into 2 mL volumetric flasks. Calibration solutions were prepared at concentrations of 8, 24, 80, 240, 800, […], and 8000 ng/mL. QC solutions were prepared at concentrations of 8, 24, 3000, and 6000 ng/mL. The IS spike solution was prepared accordingly at a concentration of 400 ng/mL. Solutions were kept at 4 °C.
Extraction via protein precipitation combined with UPLC-MS/MS quantification for Ac-[D-Leu]LLLRVK-amba complied with the FDA and EMA recommendations for accuracy, precision, linearity, matrix effects, and recovery. Within the calibrated range (10–10,000 ng/mL), correlation coefficients (r^2) of >0.99 were obtained using linear regression and 1/x^2 weighting (Table S3). Table 1 gives an overview of the intraday and interday accuracies and precision values during validation, which were well within the required limits. The observed carry-over after the highest calibration sample was 0.015% and within the required limits of less than 20% of the peak area of the LLOQ. Stock solution stability was established for 2 weeks, which was sufficient to cover sample analyses with an accuracy of 93.7% of the peak areas of the stored solutions compared to initial values.

[3] = 37 °C, 500 µg/mL; cited from earlier work
Experimental: However, these were conducted at a substantially higher concentration of Ac-[D-Leu]LLLRVK-amba of 500 µg/mL compared to the 1 µg/mL investigated here. […] Such lower stability in plasma compared to whole blood was already reported for several peptides.

PACE4 = settings: cited from earlier work
Excerpt: PACE4 is a calcium-dependent serine endoprotease, which has been identified as a potential therapeutic target in prostate cancer. Recently, an efficient inhibitory peptide for PACE4 has been reported, Ac-[D-Leu]LLLRVK-amba, which inhibits PACE4 with low nanomolar affinity. Such high affinity was achieved by optimizing the previously discovered multi-Leu peptide by inserting a […] acetylated D-leucine and replacing the […] arginine with a decarboxylated variant, a 4-amidinobenzylamide (amba) moiety.

LNCaP xenograft = settings: cited from earlier work
Excerpt: A major challenge in the development of peptide therapeutics is their susceptibility to enzymatic hydrolysis in biological systems. A primary mechanism of enzymatic degradation of small peptides in the systemic circulation is peptidase-mediated hydrolysis, especially of terminal amino acids by exopeptidase activity. Ac-[D-Leu]LLLRVK-amba comprises stability-enhancing modifications at both peptide termini: a D-amino acid at the N-terminus and an amba-moiety as a decarboxylated arginine variant at the C-terminus. Both modifications impair substrate properties for exopeptidases and thus inc ... || The pharmacokinetics of Ac-[D-Leu]LLLRVK-amba was already determined after intravenous bolus injection. With a half-life of only 9 min, this route of administration only produced a short period of potentially effective concentrations. […] Therefore, we aimed at flattening the pharmacokinetic profile with alternate routes of administr ...

half-life at 1000 ng/mL [1]: 1.39 h
metabolites / degradation products in mouse plasma ([2]; 20 µg/mL, room temperature over 16 h, HRMS, neither peptide bond hydrolysis nor oxidation products): no traces of metabolites were observed
stability in mouse plasma at 20 µg/mL ([2]; room temperature, 0, 0.5, 4 and 16 h, HRMS direct infusion (m/z 50-1200)): several hours
stock solution stability, accuracy of peak areas of stored solutions compared to initial values (Stock solution stability): 93.7%
Structure (SMILES): CC(=O)N[C@H](CC(C)C)C(=O)N[C@@H](CC(C)C)C(=O)N[C@@H](CC(C)C)C(=O)N[C@@H](CC(C)C)C(=O)N[C@@H](CCCNC(=N)N)C(=O)N[C@H](C(=O)N[C@@H](CCCCN)C(=O)NCc1ccc(C(=N)N)cc1)C(C)C [Ac-[D-Leu]LLLRVK-amba] (Ac-[dL]LLLRVK-{NH(4-amidinobenzyl)})
half-life in Na-heparin mouse plasma [3]: 18 h
affinity of PACE4 inhibition (PACE4): low nanomolar
efficacy in mouse xenograft models of prostate cancer (LNCaP xenograft; daily intravenous and intratumoral injection of 2 mg/kg): demonstrated
efficacy in treating prostate cancer in LNCaP xenograft mice, by route (LNCaP xenograft; intratumoral vs intravenous administration): substantially higher when injected intratumorally than when administered intravenously
